Data: PubChem BioAssay (NCI)
“And” between values parts separate entries of the source, which are not always exact repeats. Equal values may be shown once.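 Briefly, cells in 96-well plates were exposed to five compound concentrations for 48 h, and endpoints were estimated by linear interpolation. Abbreviation: GI50, concentration required for 50% inhibition of growth. At the TGI there is no net growth.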

Assays:
Test in all cases: NCI-60 cell line screen, 48 h
SK-MEL-2 melanoma = test system: SK-MEL-2 melanoma
SN12C renal = test system: SN12C renal
COLO 205 colon = test system: COLO 205 colon
786-0 renal = test system: 786-0 renal
DMS 114 small cell lung = test system: DMS 114 small cell lung
HCT-116 colon = test system: HCT-116 colon
M19-MEL melanoma = test system: M19-MEL melanoma
OVCAR-4 ovarian = test system: OVCAR-4 ovarian
HCC-2998 colon = test system: HCC-2998 colon

SMILES: COC(=O)/C=C1/CCC2[C@@H](C(=O)CC3[C@]2(C)CCC[C@@]3(C)C(=O)OC)C1C (some centres not stated)
- TGI (SK-MEL-2 melanoma): 35.7 µM
- TGI (SN12C renal): 40.6 µM
- TGI (COLO 205 colon): 18.1 µM
- TGI (786-0 renal): 36 µM
- TGI (DMS 114 small cell lung): 24.8 µM
- TGI (HCT-116 colon): 19.1 µM
- TGI (M19-MEL melanoma): 31.2 µM
- TGI (OVCAR-4 ovarian): 21.6 µM
- TGI (HCC-2998 colon): 39.8 µM

SMILES: CN(C)CCNC(=O)c1cc2ccccc2c2nc3ccccc3nc12
- TGI (SK-MEL-2 melanoma): 2.81 µM
- TGI (SN12C renal): 3.89 µM
- TGI (COLO 205 colon): > 100 µM
- TGI (786-0 renal): > 38.2 µM
- TGI (DMS 114 small cell lung): 2.43 µM
- TGI (HCT-116 colon): 1.87 µM
- TGI (M19-MEL melanoma): 2.67 µM
- TGI (OVCAR-4 ovarian): 2.34 µM
- TGI (HCC-2998 colon): 3.92 µM

SMILES: CS(=O)(=O)NNS(=O)(=O)c1cccc([N+](=O)[O-])c1
- TGI (SK-MEL-2 melanoma): > 100 µM
- TGI (SN12C renal): > 100 µM
- TGI (COLO 205 colon): > 100 µM
- TGI (786-0 renal): > 100 µM
- TGI (DMS 114 small cell lung): > 100 µM
- TGI (HCT-116 colon): > 100 µM
- TGI (M19-MEL melanoma): > 100 µM
- TGI (OVCAR-4 ovarian): > 100 µM
- TGI (HCC-2998 colon): > 100 µM

SMILES: CCOC(=O)/C(O)=C(/c1n[nH]c(=O)c2ccccc12)[N+](=O)[O-]
- TGI (SK-MEL-2 melanoma): > 100 µM
- TGI (SN12C renal): > 100 µM
- TGI (COLO 205 colon): > 100 µM
- TGI (786-0 renal): > 100 µM
- TGI (DMS 114 small cell lung): > 100 µM
- TGI (HCT-116 colon): > 100 µM
- TGI (M19-MEL melanoma): > 100 µM
- TGI (OVCAR-4 ovarian): > 100 µM
- TGI (HCC-2998 colon): > 100 µM

SMILES: O=c1cccccc1NCCOCCNc1cccccc1=O
- TGI (SK-MEL-2 melanoma): > 100 µM
- TGI (SN12C renal): > 100 µM
- TGI (COLO 205 colon): > 100 µM
- TGI (786-0 renal): > 100 µM
- TGI (DMS 114 small cell lung): > 100 µM
- TGI (HCT-116 colon): > 100 µM
- TGI (M19-MEL melanoma): > 100 µM
- TGI (OVCAR-4 ovarian): > 100 µM
- TGI (HCC-2998 colon): > 100 µM

SMILES: Cc1cc(NS(=O)(=O)c2ccc(N=Nc3cc(N=Nc4ccc(S(=O)(=O)Nc5cc(C)nc(C)n5)cc4)c4c(NC(=O)C(Cl)Cl)cccc4c3OC(=O)C(Cl)Cl)cc2)nc(C)n1 (tested in a mixture with another compound)
- TGI (SK-MEL-2 melanoma): 81.1 µM
- TGI (SN12C renal): 37.8 µM
- TGI (COLO 205 colon): 74.9 µM
- TGI (786-0 renal): 35.9 µM
- TGI (DMS 114 small cell lung): > 100 µM
- TGI (HCT-116 colon): > 100 µM
- TGI (M19-MEL melanoma): > 100 µM
- TGI (OVCAR-4 ovarian): 43.7 µM
- TGI (HCC-2998 colon): 35.8 µM

SMILES: CCC[CH2][Sn]1([CH2]CCC)[O]C(=O)c2cc(I)cc(I)c2[O]1
- GI50 (SK-MEL-2 melanoma): 0.491 µM
- TGI (SK-MEL-2 melanoma): 1.94 µM
- GI50 (SN12C renal): 1.42 µM
- TGI (SN12C renal): 2.96 µM
- GI50 (COLO 205 colon): 0.702 µM
- TGI (COLO 205 colon): 1.97 µM
- GI50 (786-0 renal): 1.47 µM
- TGI (786-0 renal): 2.8 µM
- GI50 (DMS 114 small cell lung): 0.303 µM
- TGI (DMS 114 small cell lung): 1.19 µM
- GI50 (HCT-116 colon): 1.42 µM
- TGI (HCT-116 colon): 2.72 µM
- GI50 (M19-MEL melanoma): 1 µM
- TGI (M19-MEL melanoma): 2.19 µM
- GI50 (OVCAR-4 ovarian): 1.41 µM
- TGI (OVCAR-4 ovarian): 2.83 µM
- GI50 (HCC-2998 colon): 1.37 µM
- TGI (HCC-2998 colon): 2.7 µM

SMILES: Cc1[nH]c2ccccc2c1C1Cc2ccccc2N1C(=O)/C=C/C=C/c1ccccc1 (configuration not stated)
- TGI (SK-MEL-2 melanoma): > 100 µM
- TGI (SN12C renal): > 100 µM
- TGI (COLO 205 colon): > 100 µM
- TGI (786-0 renal): > 100 µM
- TGI (DMS 114 small cell lung): > 100 µM
- TGI (HCT-116 colon): > 100 µM
- TGI (M19-MEL melanoma): > 100 µM
- TGI (OVCAR-4 ovarian): > 100 µM
- TGI (HCC-2998 colon): > 100 µM

SMILES: [O-]c1c2c(nn1-c1ccccc1)c1ccccc1c[n+]2Cc1ccccc1
- TGI (SK-MEL-2 melanoma): > 100 µM
- TGI (SN12C renal): > 100 µM
- TGI (COLO 205 colon): > 100 µM
- TGI (786-0 renal): > 100 µM
- TGI (DMS 114 small cell lung): > 100 µM
- TGI (HCT-116 colon): > 100 µM
- TGI (M19-MEL melanoma): > 100 µM
- TGI (OVCAR-4 ovarian): > 100 µM
- TGI (HCC-2998 colon): > 100 µM

SMILES: C/C(=C\C(C)COCc1ccccc1)[C@H](COCc1ccccc1)OCc1ccccc1 (some centres not stated)
- TGI (SK-MEL-2 melanoma): > 100 µM
- TGI (SN12C renal): > 100 µM
- TGI (COLO 205 colon): > 100 µM
- TGI (786-0 renal): > 100 µM
- TGI (DMS 114 small cell lung): > 100 µM
- TGI (HCT-116 colon): > 100 µM
- TGI (M19-MEL melanoma): > 100 µM
- TGI (OVCAR-4 ovarian): > 100 µM
- TGI (HCC-2998 colon): > 100 µM

SMILES: COc1ccc2c(=O)c(C)c(-c3ccccc3)oc2c1CN(C)C
- TGI (SN12C renal): > 100 µM
- TGI (COLO 205 colon): > 100 µM
- TGI (786-0 renal): > 100 µM
- TGI (DMS 114 small cell lung): > 100 µM
- TGI (HCT-116 colon): > 100 µM
- GI50 (M19-MEL melanoma): > 100 µM and 42.4 µM
- TGI (M19-MEL melanoma): > 100 µM
- TGI (OVCAR-4 ovarian): > 100 µM
- TGI (HCC-2998 colon): > 100 µM

SMILES: O=c1/c(=C/c2cccc([N+](=O)[O-])c2)sc2nc3ccccc3n12
- TGI (SK-MEL-2 melanoma): > 100 µM
- TGI (SN12C renal): > 100 µM
- TGI (786-0 renal): > 100 µM
- TGI (DMS 114 small cell lung): > 100 µM
- TGI (HCT-116 colon): > 100 µM
- TGI (M19-MEL melanoma): > 100 µM
- TGI (OVCAR-4 ovarian): > 100 µM
- TGI (HCC-2998 colon): > 100 µM

SMILES: COc1cc(/C=C2/C(=O)N(C(=O)OC(C)C)C(Cc3cc(OC)c(OC)c(C)c3OC)C(=O)N2Cc2ccccc2)c(OC)c(C)c1OC (configuration not stated)
- TGI (SK-MEL-2 melanoma): > 100 µM
- TGI (SN12C renal): > 100 µM
- TGI (COLO 205 colon): > 100 µM
- TGI (786-0 renal): > 100 µM
- TGI (DMS 114 small cell lung): > 100 µM
- TGI (HCT-116 colon): > 100 µM
- TGI (M19-MEL melanoma): > 100 µM
- TGI (OVCAR-4 ovarian): > 100 µM
- TGI (HCC-2998 colon): > 100 µM

SMILES: Cc1cc(O)cc2oc(=O)c3c(O)cc(O)cc3c12
- TGI (SK-MEL-2 melanoma): > 100 µM
- TGI (SN12C renal): > 100 µM
- TGI (COLO 205 colon): 66.7 µM
- TGI (786-0 renal): > 100 µM
- TGI (DMS 114 small cell lung): 86.1 µM
- TGI (HCT-116 colon): 37.6 µM
- TGI (M19-MEL melanoma): > 100 µM
- TGI (OVCAR-4 ovarian): > 100 µM
- TGI (HCC-2998 colon): 40.8 µM

SMILES: O=S1c2ccccc2N=C(c2ccc3ccccc3c2)CC1C1=CC=CCC1 (configuration not stated)
- TGI (SK-MEL-2 melanoma): 40.5 µM
- TGI (SN12C renal): 36.9 µM
- TGI (COLO 205 colon): 37.9 µM
- TGI (786-0 renal): 29.8 µM
- TGI (DMS 114 small cell lung): 33.3 µM
- TGI (M19-MEL melanoma): 31.2 µM
- TGI (HCC-2998 colon): 26.2 µM

SMILES: COc1ccc(C(=O)OCC2OC(n3cnc4c(=S)nc[nH]c43)C(OC(=O)c3ccc(OC)cc3)C2OC(=O)c2ccc(OC)cc2)cc1 (configuration not stated)
- TGI (SK-MEL-2 melanoma): > 100 µM
- TGI (COLO 205 colon): > 100 µM
- TGI (786-0 renal): > 100 µM
- TGI (DMS 114 small cell lung): > 100 µM
- TGI (HCT-116 colon): > 100 µM
- TGI (M19-MEL melanoma): > 100 µM
- TGI (OVCAR-4 ovarian): > 100 µM
- TGI (HCC-2998 colon): > 100 µM

SMILES: COC(=O)C1=C2CCC(=O)[C@@]2(C)C(OC(C)=O)C=CC1 (some centres not stated)
- TGI (SK-MEL-2 melanoma): > 100 µM
- TGI (SN12C renal): > 100 µM
- TGI (786-0 renal): > 100 µM
- TGI (DMS 114 small cell lung): > 100 µM
- TGI (HCT-116 colon): 69.6 µM
- TGI (M19-MEL melanoma): > 100 µM
- TGI (OVCAR-4 ovarian): > 100 µM
- TGI (HCC-2998 colon): > 100 µM
